Assay results reported in patent US9999222B2, “Herbicidal combination comprising azines” (BASF SE, priority 2014, dated 2018).
Where “and” joins values, the source holds several entries; their conditions need not be identical. Equal values may be shown once. Read-outs that look alike come from different tables or passages of the source.

Experiments:
Experiment in all cases: Greenhouse test, pre-emergence treatment
ALOMY = type: in vivo, Alopecurus myosuroides; conditions: Alopecurus myosuroides, pre-emergence, read-out: observed % activity; for inhibition at 8 g/ha: 8 g ai/ha; for inhibition at 16 g/ha: 16 g ai/ha
Summary of the method: (§1)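 Seeds were sown in loamy sand with about 3.0% humus, and compounds in water were sprayed immediately after sowing, alone or as combinations formulated as 10% emulsion concentrates. Plants grew under hoods until rooted, at 10-25 °C or 20-35 °C by species, for 2 to 4 weeks. Damage was scored 0-100 (100 = no emergence or complete destruction), and Colby expected values were E=X+Y−(X·Y/100).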

POLCO = type: in vivo, Polygonum convolvulus
Summary of the method: as §1

AVEFA = type: in vivo, Avena fatua; conditions: for observed % activity: 20 DAT
Summary of the method: as §1

BRADC = type: in vivo, Brachiaria decumbens; conditions: Urochloa decumbens, pre-emergence, read-out: observed % activity; for inhibition at 16 g/ha: 16 g ai/ha
Summary of the method: as §1

COMBE = type: in vivo, Commelina benghalensis; conditions: 20 DAT
Summary of the method: as §1

EPHHL = type: in vivo, Euphorbia heterophylla; conditions: 20 DAT
Summary of the method: as §1

GALAP = type: in vivo, Galium aparine
Summary of the method: as §1

GERPU = type: in vivo, Geranium pusillum; conditions: 20 DAT
Summary of the method: as §1

KCHSC = type: in vivo, Kochia scoparia; conditions: 20 DAT
Summary of the method: as §1

LOLMU = type: in vivo, Lolium multiflorum; conditions: Lolium multiflorum, pre-emergence, read-out: observed % activity; for inhibition at 8 g/ha: 8 g ai/ha; for inhibition at 16 g/ha: 16 g ai/ha
Summary of the method: as §1

PHACA = type: in vivo, Phalaris canariensis; conditions: for inhibition at 8 g/ha / inhibition at 16 g/ha: Phalaris canariensis, pre-emergence, read-out: observed % activity; for inhibition at 8 g/ha: 8 g ai/ha
Summary of the method: as §1

IPOHE = type: in vivo, Ipomoea hederacea; conditions: Ipomoea hederacea, 480 h, 16 g ai/ha, 20 DAT, read-out: observed % activity
Summary of the method: as §1

SORHA = type: in vivo, Sorghum halepense; conditions: Sorghum halepense, pre-emergence, read-out: observed % activity; for inhibition at 8 g/ha: 8 g ai/ha; for inhibition at 16 g/ha: 16 g ai/ha
Description: The culture containers used were plastic flowerpots containing loamy sand with approximately 3.0% of humus as the substrate. The seeds of the test plants were sown separately for each species.
For the pre-emergence treatment, the active ingredients, which had been suspended or emulsified in water, were applied directly after sowing by means of finely distributing nozzles. The containers were irrigated gently to promote germination and growth and subsequently covered with transparent plastic hoods until the plants had rooted. This cover caused uniform germination of the test plants, unless this had been impaired by the active ingredients.
Depending on the species, the plants were kept at 10-25° C. or 20-35° C., respectively.
The test period extended over 2 to 4 weeks. During this time, the plants were tended, and their response to the individual treatments was evaluated.
Evaluation was carried out using a scale from 0 to 100. 100 means no emergence of the plants, or complete destruction of at least the aerial moieties, and 0 means no damage, or normal course of growth. A moderate herbicidal activity is given at values of at least 60, a good herbicidal activity is given at values of at least 70, and a very good herbicidal activity is given at values of at least 85.
The respective stated components a and b, and if appropriate, c were formulated as a 10% by weight strength emulsion concentrate and, with addition of the amount of solvent system, introduced into the spray liquor used for applying the active compound.
In the examples, the solvent used was water.
In the examples below, using the method of S. R. Colby (1967) “Calculating synergistic and antagonistic responses of herbicide combinations”, Weeds 15, p. 22ff., the value E, which is expected if the activity of the individual active compounds is only additive, was calculated. E=X+Y−(X·Y/100) where • X=percent activity using active compound a at an application rate A; • Y=percent activity using active compound b at an application rate B; • E=expected activity (in %) by a+b at application rates A+B.
If the value found experimentally is higher than the value E calculated according to Colby, a synergistic effect is present.

For CC1(c2nc(N)nc(Nc3c(F)c(F)cc(F)c3F)n2)CCC1 [compound 8, 6-(1-methylcyclobutyl)-N4-(2,3,5,6-tetrafluorophenyl)-1,3,5-triazine-2,4-diamine], the inhibition at 8 g/ha (ALOMY; 192 h, 8 DAT) was 50%, the inhibition at 16 g/ha (ALOMY; 192 h, 8 DAT) was 90% and the inhibition at 8 g/ha (ALOMY; 480 h, 20 DAT) was 55%. It also gave an inhibition at 16 g/ha (ALOMY; 480 h, 20 DAT) of 90%, an observed % activity (POLCO; 8 g ai/ha, 20 DAT) of 0% and an observed % activity (POLCO; 16 g ai/ha, 20 DAT) of 70%. The inhibition at 8 g/ha (POLCO; Fallopia convolvulus, pre-emergence, 192 h, 8 g ai/ha, 8 DAT, read-out: observed % activity) was 65%, the inhibition at 16 g/ha (POLCO; Fallopia convolvulus, pre-emergence, 480 h, 16 g ai/ha, 20 DAT, read-out: observed % activity) was 80% and the observed % activity (AVEFA; 8 g ai/ha) was 5% and 10%. For the same compound, the observed % activity (AVEFA; 16 g ai/ha) was 10%, the inhibition at 8 g/ha (AVEFA; Avena fatua, pre-emergence, 192 h, 8 g ai/ha, 8 DAT, read-out: observed % activity) was 0% and the inhibition at 16 g/ha (AVEFA; Avena fatua, pre-emergence, 192 h, 16 g ai/ha, 8 DAT, read-out: observed % activity) was 0%. For the same compound, the inhibition at 16 g/ha (BRADC; 192 h, 8 DAT) was 60%, the inhibition at 8 g/ha (BRADC; 480 h, 8 g ai/ha, 20 DAT) was 78% and the inhibition at 16 g/ha (BRADC; 480 h, 20 DAT) was 70%. For the same compound, the observed % activity (COMBE; 8 g ai/ha) was 50%, the observed % activity (COMBE; 16 g ai/ha) was 80% and the inhibition at 8 g/ha (COMBE; Commelina benghalensis, pre-emergence, 480 h, 8 g ai/ha, read-out: observed % activity) was 60%. It also gave an inhibition at 16 g/ha (COMBE; Commelina benghalensis, pre-emergence, 480 h, 16 g ai/ha, read-out: observed % activity) of 65%, an observed % activity (EPHHL; 16 g ai/ha) of 65% and an inhibition at 8 g/ha (EPHHL; Euphorbia heterophylla, pre-emergence, 480 h, 8 g ai/ha, read-out: observed % activity) of 45%. It also gave an inhibition at 16 g/ha (EPHHL; Euphorbia heterophylla, pre-emergence, 480 h, 16 g ai/ha, read-out: observed % activity) of 70%, an observed % activity (GALAP; 8 g ai/ha, 20 DAT) of 20% and an inhibition at 16 g/ha (GALAP; Galium aparine, pre-emergence, 192 h, 16 g ai/ha, 8 DAT, read-out: observed % activity) of 0%. The observed % activity (GERPU; 8 g ai/ha) was 20%, the observed % activity (GERPU; 16 g ai/ha) was 80% and the inhibition at 16 g/ha (GERPU; Geranium pusillum, pre-emergence, 480 h, 16 g ai/ha, read-out: observed % activity) was 60%. The observed % activity (KCHSC; 8 g ai/ha) was 70% and 80%, the observed % activity (KCHSC; 16 g ai/ha) was 80% and the inhibition at 8 g/ha (KCHSC; Bassia scoparia, pre-emergence, 480 h, 8 g ai/ha, read-out: observed % activity) was 90%. The inhibition at 16 g/ha (KCHSC; Bassia scoparia, pre-emergence, 480 h, 16 g ai/ha, read-out: observed % activity) was 85%, the inhibition at 8 g/ha (LOLMU; 192 h, 8 DAT) was 30% and the inhibition at 16 g/ha (LOLMU; 192 h, 8 DAT) was 40%. For the same compound, the inhibition at 8 g/ha (LOLMU; 480 h, 20 DAT) was 30%, the inhibition at 16 g/ha (LOLMU; 480 h, 20 DAT) was 40% and the observed % activity (PHACA; 16 g ai/ha, 20 DAT) was 60%. The inhibition at 8 g/ha (PHACA; 192 h, 8 DAT) was 25%, the inhibition at 16 g/ha (PHACA; 192 h, 16 g ai/ha, 8 DAT) was 40% and the inhibition at 8 g/ha (PHACA; 480 h, 20 DAT) was 28%. For the same compound, the inhibition at 16 g/ha (PHACA; 480 h, 16 g ai/ha, 20 DAT) was 50%, the inhibition at 16 g/ha (IPOHE) was 35% and the inhibition at 8 g/ha (SORHA; 192 h, 8 DAT) was 90%. For the same compound, the inhibition at 16 g/ha (SORHA; 192 h, 8 DAT) was 90%, the inhibition at 8 g/ha (SORHA; 480 h, 20 DAT) was 90% and the inhibition at 16 g/ha (SORHA; 480 h, 20 DAT) was 90%.
